Read-outs that look alike come from different tables or passages of the source.
Columns and labels:
[1] = Figure 1 summary data; cited from earlier work
[2] = Figure 1 summary data; cited from earlier work; remark: listed apart in the source
[3] = Pharmacokinetics in rats; assay type: in vivo; settings: rat, hydrochloride salt

Vd ([3]; in vivo, iv 4.5 mg/kg) [L/kg] | half-life ([3]; in vivo, iv 4.5 mg/kg, read-out: iv t1/2 (converted)) [h] | clearance ([3]; plasma, iv 4.5 mg/kg, read-out: plasma Cl) [mL/min/kg] | oral BA ([3]; po 21 mg/kg, iv […]) [%] | clearance ([3]; whole blood, iv 4.5 mg/kg, read-out: blood Cl) [mL/min/kg] | Structure (SMILES) | HLM % rem at 40 min [1] [%] | MLM % rem at 30 min [2] [%]
 |  |  |  |  | CC(C)CCNc1ccc(-c2cnc3ccc(NC4CCN(C)CC4)nn23)cn1 [Compound 1] | 85 | 63
8 | 4 | 28 | 70 | 14 | CN1CCC(Nc2ccc3ncc(-c4ccc(Nc5ncccc5F)cc4)n3n2)CC1 [Compound 35, 3-{4-[(3-Fluoropyridin-2-yl)amino]phenyl}-N-(1-methylpiperidin-4-yl)imidazo[1,2-b]pyridazin-6-amine] |  | 

Reference: publication PMC4024065, “Optimization of an Imidazopyridazine Series of Inhibitors of Plasmodium falciparum Calcium-Dependent Protein Kinase 1 (PfCDPK1)” (Journal of Medicinal Chemistry, 2014)
